# Laboratory results reported in patent US8288375B2, “Fungicidal bicyclic pyrazoles” (E.I. du Pont de Nemours and Company, priority 2007, dated 2012).
# How the values were obtained:
# [1] = test system: Erysiphe graminis f. sp. tritici; assay: Test A: wheat powdery mildew, test suspension sprayed on wheat seedlings, disease rating; assay type: in vivo; settings: 200 ppm test suspension, 100 = 100% disease control, 0 = no control; for pest or weed control at 200 ppm: Blumeria graminis, 192 h
# Rhizoctonia oryzae = assay: Test I: turf brown patch, test suspension sprayed on creeping bent grass seedlings, disease rating; assay type: in vivo; settings: 200 ppm test suspension; for pest or weed control at 200 ppm: Waitea circinata, in Agrostis stolonifera, 120 h
# [2] = test system: Colletotrichum orbiculare; assay: Test F: cucumber Colletotrichum anthracnose, test suspension sprayed on cucumber seedlings, disease rating; assay type: in vivo; settings: 200 ppm test suspension; for pest or weed control at 200 ppm: Colletotrichum orbiculare, 144 h
# Pythium aphanidermatum = assay: Test L: bluegrass pythium blight, test suspension sprayed on bluegrass seedlings, disease rating; assay type: in vivo; settings: for pest or weed control at 200 ppm / pest or weed control at 40 ppm: Pythium aphanidermatum, 120 h; for pest or weed control at 200 ppm / Test L disease control rating: 200 ppm test suspension; for pest or weed control at 40 ppm: 40 ppm test suspension (*);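 for all read-outs here: 200 ppm unless marked * meaning 40 ppm or ** meaning 10 ppm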
# [3] = test system: Puccinia recondite f sp. tritici; assay: Test B: wheat leaf rust, test suspension sprayed on wheat seedlings, disease rating; assay type: in vivo; settings: for pest or weed control at 200 ppm / pest or weed control at 40 ppm: Puccinia, 192 h; for pest or weed control at 200 ppm / Test B disease control rating: 200 ppm test suspension; for pest or weed control at 40 ppm: 40 ppm test suspension (*);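 for all read-outs here: 200 ppm unless marked * meaning 40 ppm or ** meaning 10 ppm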
# Botrytis cinerea = assay: Test H: tomato Botrytis, test suspension sprayed on tomato seedlings, disease rating; assay type: in vivo; settings: 200 ppm test suspension; for pest or weed control at 200 ppm: Botrytis cinerea, 120 h
# Phytophthora infestans = assay: whole plant or invertebrate; assay type: in vivo; settings: for pest or weed control at 200 ppm / pest or weed control at 40 ppm: Phytophthora infestans, in Solanum lycopersicum, 120 h, read-out: Test J disease control rating; for Test J disease control rating: 200 ppm test suspension
# Fusarium graminearum = assay: whole plant or invertebrate; assay type: in vivo; settings: for pest or weed control at 200 ppm / pest or weed control at 40 ppm: Fusarium graminearum, in Triticum aestivum, 192 h, read-out: Test C disease control rating
# Septoria tritici = assay: Test E: wheat leaf blotch, test suspension sprayed on wheat seedlings, disease rating; assay type: in vivo; settings: for pest or weed control at 200 ppm / pest or weed control at 40 ppm: Zymoseptoria tritici, 504 h; for pest or weed control at 200 ppm / Test E disease control rating: 200 ppm test suspension; for pest or weed control at 40 ppm: 40 ppm test suspension (*);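 for all read-outs here: 200 ppm unless marked * meaning 40 ppm or ** meaning 10 ppm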
# Septoria nodorum = assay: Test D: wheat glume blotch, test suspension sprayed on wheat seedlings, disease rating; assay type: in vivo; settings: 200 ppm test suspension; for pest or weed control at 200 ppm: Parastagonospora nodorum, 216 h
# Plasmopara viticola = assay: Test K: grape downy mildew, grape seedlings inoculated and then sprayed, disease rating; assay type: in vivo; settings: 200 ppm test suspension
# Alternaria solani = assay: Test G: tomato early blight, test suspension sprayed on seedlings, disease rating; assay type: in vivo; settings: Alternaria solani, 168 h; for pest or weed control at 200 ppm: 200 ppm test suspension; for pest or weed control at 40 ppm: 40 ppm test suspension (*);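 for all read-outs here: 200 ppm unless marked * meaning 40 ppm or ** meaning 10 ppm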
# Sclerotinia sclerotiorum = assay: Test M: cucumber white mold, test suspension sprayed on cucumber seedlings, disease rating; assay type: in vivo; settings: 200 ppm test suspension
# Excerpt: General protocol for preparing test suspensions for Tests A-M: The test compounds were first dissolved in acetone in an amount equal to 3% of the final volume and then suspended at the desired concentration (in ppm) in acetone and purified water (50/50 mix) containing 250 ppm of the surfactant Trem® 014 (polyhydric alcohol esters). The resulting test suspensions were then used in Tests A-M. Spraying a 200 ppm test suspension to the point of run-off on the test plants was the equivalent of an application rate of 500 g/ha.
# The test suspension was sprayed to the point of run-off on cucumber seedlings. The following day the seedlings were inoculated with a spore suspension of Sclerotinia sclerotiorum (the causal agent of cucumber white mold) and incubated in saturated atmosphere at 24° C. for 72 h, and then moved to a growth chamber at 24° C. for 3 additional days, after which time disease ratings were made.
# Results for Tests A-M are given in Table A. In the table, a rating of 100 indicates 100% disease control and a rating of 0 indicates no disease control (relative to the controls). A dash (-) indicates no test results. All results are for 200 ppm test suspension except where followed by “*” which indicates 40 ppm or by “**” which indicates 10 ppm.
Structure (SMILES),pest or weed control at 200 ppm [1] [%],pest or weed control at 200 ppm (Rhizoctonia oryzae) [%],pest or weed control at 200 ppm [2] [%],pest or weed control at 200 ppm (Pythium aphanidermatum) [%],melting point [°C],pest or weed control at 200 ppm [3] [%],pest or weed control at 200 ppm (Botrytis cinerea) [%],pest or weed control at 200 ppm (Phytophthora infestans) [%],pest or weed control at 200 ppm (Fusarium graminearum) [%],pest or weed control at 200 ppm (Septoria tritici) [%],pest or weed control at 200 ppm (Septoria nodorum) [%],Test K disease control rating (Plasmopara viticola) [%],pest or weed control at 40 ppm (Alternaria solani) [%],also measured
"Fc1ccc(-c2nn3c(c2-c2ccnc(NC4CC4)n2)CCCC3)cc1 [Compound 12, N-cyclopropyl-4-[2-(4-fluorophenyl)-4,5,6,7-tetrahydropyrazolo[1,5-a]pyridin-3-yl]-2-pyrimidinamine]",97,64,94,100,164 to 165,99,98,100,100,100,99,0,–,–
"Fc1ccc(-c2nn3c(c2-c2ccnc(NC4CC4)n2)CCCN3)cc1 [Compound 131, N-cyclopropyl-4-[2-(4-fluorophenyl)-4,5,6,7-tetrahydropyrazolo[1,5-b]pyridazin-3-yl]-2-pyrimidinamine]",96,57,58,100,184 to 187,100,9,97,100,–,87,0,–,pest or weed control at 200 ppm (Alternaria solani): 81%
COCC(C)Nc1nccc(-c2c(-c3ccc(F)cc3)nn3c2CCCC3)n1 (stereo not drawn) [compound 1],–,–,–,–,–,–,–,–,–,–,–,0,–,Test M disease control rating (Sclerotinia sclerotiorum): 99%; Test A disease control rating [1]: 94%; Test I disease control rating (Rhizoctonia oryzae): 41%; Test F disease control rating [2]: 96%; Test L disease control rating (Pythium aphanidermatum): 100%; Test B disease control rating [3]: 100%; Test H disease control rating (Botrytis cinerea): 91%; Test J disease control rating (Phytophthora infestans): 100%; Test C disease control rating (Fusarium graminearum; 200 ppm test suspension): 100%; Test E disease control rating (Septoria tritici): 98%; Test D disease control rating (Septoria nodorum): 98%
"CC(CO)Nc1nccc(-c2c(-c3ccc(F)cc3)nn3c2CCCN3)n1 (stereo not drawn) [Compound 132, 2-[[4-[2-(4-fluorophenyl)-4,5,6,7-tetrahydropyrazolo[1,5-b]pyridazin-3-yl]-2-pyrimidinyl]amino]-1-propanol]",66,0,0,–,165 to 167,–,0,–,–,–,0,–,0,pest or weed control at 40 ppm (Pythium aphanidermatum): 100%; pest or weed control at 40 ppm [3]: 88%; pest or weed control at 40 ppm (Phytophthora infestans): 65%; pest or weed control at 40 ppm (Fusarium graminearum): 0%; pest or weed control at 40 ppm (Septoria tritici): 0%
"COC(=O)N1CCn2nc(-c3ccc(F)cc3)c(-c3ccnc(NC(C)C)n3)c2C1 [Compound 138, methyl 2-(4-fluorophenyl)-6,7-dihydro-3-[2-[(1-methylethyl)amino]-4-pyrimidinyl]pyrazolo[1,5-a]pyrazine-5(4H)-carboxylate]",0,0,–,–,88 to 89,–,68,–,–,–,99,–,99,pest or weed control at 40 ppm (Pythium aphanidermatum): 99%; pest or weed control at 40 ppm [3]: 98%; pest or weed control at 40 ppm (Phytophthora infestans): 88%; pest or weed control at 40 ppm (Fusarium graminearum): 86%; pest or weed control at 40 ppm (Septoria tritici): 83%
"c1cc(-c2c(-c3ccsc3)nn3c2COCC3)nc(NC2CC2)n1 [Compound 121, N-cyclopropyl-4-[6,7-dihydro-2-(3-thienyl)-4H-pyrazolo[5,1-c][1,4]oxazin-3-yl]-2-pyrimidinamine]",0,–,15,99,182 to 184,94,66,97,99,93,84,–,–,pest or weed control at 200 ppm (Alternaria solani): 89%
CCC(C)Nc1nccc(-c2c(-c3ccc(F)cc3)nn3c2CCCC3)n1 (stereo not drawn) [compound 2],–,–,–,–,–,–,–,–,–,–,–,0,–,Test M disease control rating (Sclerotinia sclerotiorum): 0%; Test A disease control rating [1]: 0%; Test I disease control rating (Rhizoctonia oryzae): 31%; Test F disease control rating [2]: 85%; Test L disease control rating (Pythium aphanidermatum): 100%; Test B disease control rating [3]: 98%; Test H disease control rating (Botrytis cinerea): 92%; Test J disease control rating (Phytophthora infestans): 47%; Test E disease control rating (Septoria tritici): 97%; Test D disease control rating (Septoria nodorum): 98%
"CC(C)Nc1nccc(-c2c(-c3ccc(F)cc3)nn3c2COCC3)n1 [Compound 107, 4-[2-(4-fluorophenyl)-6,7-dihydro-4H-pyrazolo[5,1-c][1,4]oxazin-3-yl]-N-(1-methylethyl)-2-pyrimidinamine]",92,80,99,100,144 to 146,99,90,100,99,100,99,–,99,–
"CC(C)Nc1nccc(-c2c(-c3ccc(F)cc3)nn3c2CCCC3)n1 [Compound 8, 4-[2-(4-fluorophenyl)-4,5,6,7-tetrahydropyrazolo[1,5-a]pyridin-3-yl]-N-(1-methylethyl)-2-pyrimidinamine]",81,62,99,100,178 to 180,99,97,100,100,100,100,–,99,–
